Values quoted from earlier work, collected in patent publication US20170151272A1, “A NOVEL PHARMACEUTICAL COMPOSITION OF […] RIBAVIRIN” (SANOVEL ILAC SANAYI VE TICARET ANONIM SIRKETI, priority 2014, published 2017).

System: chronic hepatitis C (CHC) infections
Details: ribavirin alone

## 1-β-Dribofuranosyl-1H-1,2,4-triazole-3-carboxamide [Ribavirin]
  sustained virologic response: did not produce any sustained virologic response
During or after therapy
  HCV RNA levels: did not reduce
During the course of treatment, some patients with CHC
  alanine aminotransferase (ALT) levels: normalize W201 alanine aminotransferase (ALT) levels transiently
